Measurements published in US5952354A, “Tris carbamic acid esters: inhibitors of cholesterol absorption” (priority 1993, dated 1999).
pIC50: −log10 of the molar value. Like-named read-outs stand apart in the source and are kept apart here.

Experiments:
[1] = system: absorption of 14C-cholesterol; assay: in vivo cholesterol absorption studies in normal rats ([4-14C] cholesterol); conditions: Rattus norvegicus, read-out: Effect on Absorption of 14C-chol. - 6 hr - normal, % Decrease; for inhibition in vivo at 10 mg/kg: 10 mg/kg oral; for inhibition in vivo at 3 mg/kg: 3 mg/kg oral
Procedure: The in vivo cholesterol absorption studies were conducted in normal rats by oral administration of the compound being tested in propylene glycol and olive oil followed by oral administration of [4-^14 C] cholesterol in propylene glycol and olive oil, otherwise following the procedure of Cayen et al., J. Lipid Res. 20 162 (1979). The serum radioactivity was measured at six hours after dosing. The results of this study are reported in the following table as percent decrease compared to control at the dose stated.

[2] = biological target: T1, cholesterol esterase (EC 3.1.1.13) (CEH) (Bos taurus, UniProt P30122); assay: inhibition of cholesteryl ester formation by cholesterol esterase (CEH), procedure of Field; format: biochemical, bovine
T1 construct: purchased Sigma Company, St. Louis, Mo., U.S.A. C-1892; host or cells: bovine pancreas
T1 sequence (P30122 19-597): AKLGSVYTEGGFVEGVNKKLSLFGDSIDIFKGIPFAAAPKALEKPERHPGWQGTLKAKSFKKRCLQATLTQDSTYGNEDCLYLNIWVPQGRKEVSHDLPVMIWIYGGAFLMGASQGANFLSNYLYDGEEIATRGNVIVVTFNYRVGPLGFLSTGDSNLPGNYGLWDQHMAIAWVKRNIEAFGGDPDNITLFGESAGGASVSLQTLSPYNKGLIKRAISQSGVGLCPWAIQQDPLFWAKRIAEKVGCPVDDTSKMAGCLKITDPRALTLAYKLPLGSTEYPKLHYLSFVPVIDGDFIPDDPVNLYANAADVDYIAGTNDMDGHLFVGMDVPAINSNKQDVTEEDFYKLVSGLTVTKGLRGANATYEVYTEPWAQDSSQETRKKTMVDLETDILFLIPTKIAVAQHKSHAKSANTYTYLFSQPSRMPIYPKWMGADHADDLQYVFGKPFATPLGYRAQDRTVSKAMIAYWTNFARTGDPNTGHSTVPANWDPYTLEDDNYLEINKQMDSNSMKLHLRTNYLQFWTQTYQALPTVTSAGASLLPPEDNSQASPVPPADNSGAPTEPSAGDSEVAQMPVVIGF
Procedure: 2. The ability of the compounds of this invention to inhibit the formation of cholesteryl esters and thereby interfere with and prevent assimilation of cholesterol into the lymphatic system and ultimately the blood stream was established by incubating the compounds at 37C. with a mixture of cholesterol and oleic acid in the presence of buffered cholesterol esterase [(EC 3.1.1.13) Sigma Company, St. Louis, Mo., U.S.A., No. C-1892, from bovine pancreas] and measuring the amount of ester formed, according to the procedure of Field. J. of Lipid Research, 25, 389 (1984).

[3] = system: acyl-coenzyme A: cholesterol acyltransferase (ACAT); assay: inhibition of acyl-coenzyme A: cholesterol acyltransferase (intracellular cholesterol esterification, procedure of Ross et al.); format: cell-based; conditions: for pIC50: read-out: ACAT IC50
Procedure: 1. The ability of the compounds of this invention to inhibit acyl-coenzyme A: cholesterol acyltransferase was established by initially showing that they inhibited intracellular cholesterol esterification by subjecting them to the standard experimental test procedure of Ross et al., J. Biol. Chem. 259, 814 (1984). The results are reported in the following table, where available, in terms of the percent inhibition at 25 μM and the IC50 (μM).

[4] = normal rats, serum radioactivity at 6 hr, vs control
[5] = 37C, cholesterol and oleic acid, buffered cholesterol esterase from bovine pancreas, read-out: CEH IC50
[6] = 20 mg/kg oral, normal rats, serum radioactivity at 6 hr, vs control

Structure (SMILES)	inhibition in vivo at 10 mg/kg [1, 4] [%]	pIC50 [2, 5]	ACAT % inhibition at 25 μM [3] [%]	pIC50 [3]	inhibition in vivo at 20 mg/kg [1, 6] [%]	inhibition in vivo at 3 mg/kg [1, 4] [%]	inhibition in vivo at 20 mg/kg ([1]; po, 6 h) [%]	pIC50 [2]
CCCCCCNC(=O)OCCCNC(=O)OC1CCN(C(=O)Oc2ccc(Oc3ccccc3)cc2)CC1 [Example 16, 4-[3-(Hexylcarbamoyloxy)-propylcarbamoyloxy]-piperidine-1-carboxylic acid 4-phenoxyphenyl ester]	68	6.14	–	–	–	–	–	–
O=C(NCCCCCCOC(=O)N(Cc1ccccc1)Cc1ccccc1)OC1CCN(C(=O)Oc2ccc(Oc3ccccc3)cc2)CC1 [Example 9]	49	7.10	95	5.80	–	–	–	–
CCCCCCCCCNC(=O)OCCCNC(=O)OC1CCN(C(=O)Oc2ccc(Oc3ccccc3)cc2)CC1 [Example 18, 4-[3-(Nonylcarbamoyloxy)-propylcarbamoyloxy]-piperidine-1-carboxylic acid 4-phenoxyphenyl ester]	50	6.29	–	–	–	–	–	–
CCCCCCCC/C=C\CCCCCCCCNC(=O)OCCCCCCNC(=O)OC1CCN(C(=O)Oc2ccc(Oc3ccccc3)cc2)CC1 [Example 13]	–	4.81	47	–	20	–	–	–
CCCCCCN(CCCCCC)C(=O)OCCCCCCNC(=O)OC1CCN(C(=O)Oc2ccc(Oc3ccccc3)cc2)CC1 [Example 7]	–	6.17	76	5.19	42	–	–	–
O=C(NCCCCCCOC(=O)N1CCCCC1)OC1CCN(C(=O)Oc2ccc(Oc3ccccc3)cc2)CC1 [Example 8, 4-[6-(Piperidine-1-carbonyloxy)-hexylcarbamoyloxy]-piperidine-1-carboxylic acid 4-phenoxyphenyl ester]	–	6.27	98	5.63	–	65	–	–
O=C(NCCCCCCOC(=O)N1CCC2(CCCC2)CC1)OC1CCN(C(=O)Oc2ccc(Oc3ccccc3)cc2)CC1 [Example 12, 8-Aza-spiro[4,5]decane-8-carboxylic acid 6-{[1-(4-phenoxy-phenoxycarbonyl)-piperidine-4-oxycarbonyl]amino}-hexyl ester]	76	6.51	83	5.76	–	–	–	–
CCCCCCCN(Cc1ccc(CC(C)(C)C)cc1)C(=O)OCCCCCCNC(=O)OC1CCN(C(=O)Oc2ccc(Oc3ccccc3)cc2)CC1 [Example 11, 4-{6-[(4-(2,2-Dimethyl-propyl)-benzyl)-heptyl-carbamoyloxy]-hexyl-carbamoyloxy}-piperidine-1-carboxylic acid 4-phenoxyphenyl ester]	–	4.55	24	–	6	–	–	–
CCCCCCCC/C=C\CCCCCCCCNC(=O)OCCCCCCCCCCCCNC(=O)OC1CCN(C(=O)Oc2ccc(Oc3ccccc3)cc2)CC1 [Example 14, (Z)-4-[12-(Octadec-9-enylcarbamoyloxy)-dodecylcarbamoyloxy]-piperidine-1-carboxylic acid 4-phenoxyphenyl ester]	–	< 4.00	41	–	2	–	–	–
CCCCCCNC(=O)OCCCCCCCCCCCCNC(=O)OC1CCN(C(=O)Oc2ccc(Oc3ccccc3)cc2)CC1 [Example 10, 4-[12-(Hexylcarbamoyloxy)-dodecylcarbamoyloxy]-piperidine-1-carboxylic acid 4-phenxoyphenyl ester]	–	–	83	5.30	–	–	22	6.21
CCCCCCNC(=O)OCCCCCCNC(=O)OC1CCN(C(=O)Oc2ccc(Oc3ccccc3)cc2)CC1 [Example 6, 4-[6-(Hexylcarbamoyloxy)-hexylcarbamoyloxy]-piperidine-1-carboxylic acid 4-phenoxyphenyl ester]	–	6.38	97	5.75	–	59	–	–
